Measurements published in paper PMC11233931, “Remodeling tumor‐associated macrophage for anti‐cancer effects by rational design of irreversible inhibition of mitogen‐activated protein kinase‐activated protein kinase 2” (MedComm, 2024).
Like-named read-outs stand apart in the source and are kept apart here.

Experiments:
Test in all cases: Eurofins kinase selectivity profile against 380 other human recombinant kinases (Table S2)
Format in all cases: biochemical
[1] = molecular target: T1, 380 human recombinant protein kinases (Homo sapiens, UniProt Q7L7X3); details: TAO1(h), read-out: Inhibition rate (%)
T1 construct: purchased Eurofins (Celle Lévescault)
T1 sequence (Q7L7X3 1-1001): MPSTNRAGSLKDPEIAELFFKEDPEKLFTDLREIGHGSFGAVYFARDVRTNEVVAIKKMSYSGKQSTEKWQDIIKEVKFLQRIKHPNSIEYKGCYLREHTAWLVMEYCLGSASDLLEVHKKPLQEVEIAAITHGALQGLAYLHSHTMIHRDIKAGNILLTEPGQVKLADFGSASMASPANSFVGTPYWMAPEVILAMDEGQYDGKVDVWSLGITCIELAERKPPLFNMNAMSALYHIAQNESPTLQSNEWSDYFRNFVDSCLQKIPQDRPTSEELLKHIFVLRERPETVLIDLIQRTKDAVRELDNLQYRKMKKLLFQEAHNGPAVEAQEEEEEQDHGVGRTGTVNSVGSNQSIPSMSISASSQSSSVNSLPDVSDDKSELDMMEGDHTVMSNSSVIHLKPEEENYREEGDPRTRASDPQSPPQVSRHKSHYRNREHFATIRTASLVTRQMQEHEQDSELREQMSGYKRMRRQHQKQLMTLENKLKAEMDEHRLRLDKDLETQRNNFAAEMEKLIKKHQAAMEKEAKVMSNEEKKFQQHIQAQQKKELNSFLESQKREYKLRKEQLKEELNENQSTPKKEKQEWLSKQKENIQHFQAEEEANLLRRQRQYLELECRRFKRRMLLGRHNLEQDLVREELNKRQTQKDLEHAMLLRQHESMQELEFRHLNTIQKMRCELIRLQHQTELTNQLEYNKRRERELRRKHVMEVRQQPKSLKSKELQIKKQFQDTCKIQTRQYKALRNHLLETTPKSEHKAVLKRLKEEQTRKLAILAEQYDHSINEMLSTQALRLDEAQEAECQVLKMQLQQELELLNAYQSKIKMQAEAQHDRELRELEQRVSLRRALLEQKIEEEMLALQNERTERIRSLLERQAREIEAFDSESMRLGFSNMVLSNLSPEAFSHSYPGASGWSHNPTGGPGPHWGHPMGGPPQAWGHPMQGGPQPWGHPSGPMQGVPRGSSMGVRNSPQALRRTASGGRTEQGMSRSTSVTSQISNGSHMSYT
Summary of the method: (§1)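 Commercial selectivity screen of the test compound against a panel of 380 human recombinant protein kinases, run by an outside contractor at several compound concentrations to check whether its potency was specific for MK2.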

[2] = molecular target: T2, 380 human recombinant protein kinases (Homo sapiens, UniProt Q02763); details: Tie2 (h), read-out: Inhibition rate (%)
T2 construct: purchased Eurofins (Celle Lévescault)
Summary of the method: as §1

[3] = molecular target: T3, 380 human recombinant protein kinases (Homo sapiens, UniProt Q16512); details: PRK1(h), read-out: Inhibition rate
T3 construct: purchased Eurofins (Celle Lévescault)
Summary of the method: as §1

[4] = molecular target: T4, 380 human recombinant protein kinases (Homo sapiens, UniProt O60285); details: ARK5(h), read-out: Inhibition rate
T4 construct: purchased Eurofins (Celle Lévescault)
T4 sequence (O60285 1-661): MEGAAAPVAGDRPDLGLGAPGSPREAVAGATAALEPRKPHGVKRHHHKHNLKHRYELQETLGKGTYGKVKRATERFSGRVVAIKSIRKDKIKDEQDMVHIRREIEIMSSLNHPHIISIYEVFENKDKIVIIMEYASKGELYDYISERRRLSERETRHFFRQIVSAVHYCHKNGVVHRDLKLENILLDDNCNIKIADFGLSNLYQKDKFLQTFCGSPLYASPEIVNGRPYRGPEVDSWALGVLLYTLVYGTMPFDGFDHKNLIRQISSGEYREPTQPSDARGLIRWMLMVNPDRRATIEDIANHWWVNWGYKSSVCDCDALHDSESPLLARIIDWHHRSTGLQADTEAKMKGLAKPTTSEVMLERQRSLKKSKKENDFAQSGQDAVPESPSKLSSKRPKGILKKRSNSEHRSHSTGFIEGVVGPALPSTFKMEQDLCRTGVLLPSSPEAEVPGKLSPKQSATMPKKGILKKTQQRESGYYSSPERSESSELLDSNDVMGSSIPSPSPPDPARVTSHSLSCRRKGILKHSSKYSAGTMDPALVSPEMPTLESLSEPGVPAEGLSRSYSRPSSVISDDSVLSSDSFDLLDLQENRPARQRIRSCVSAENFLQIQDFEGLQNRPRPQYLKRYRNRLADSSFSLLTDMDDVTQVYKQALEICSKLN
Summary of the method: as §1

[5] = molecular target: T5, 380 human recombinant protein kinases (Homo sapiens, UniProt Q02779); details: MLK2(h), read-out: Inhibition rate
T5 construct: purchased Eurofins (Celle Lévescault)
Summary of the method: as §1

[6] = molecular target: T6, 380 human recombinant protein kinases (Homo sapiens, UniProt P68400); details: read-out: Inhibition rate; for inhibition at 0.01 µM: 10 nM; for inhibition at 0.1 µM: 100 nM; for inhibition at 1 µM: 1000 nM
T6 construct: purchased Eurofins (Celle Lévescault)
Summary of the method: as §1

[7] = molecular target: T7, 380 human recombinant protein kinases (Homo sapiens, UniProt Q13153); details: PAK1(h), read-out: Inhibition rate
T7 construct: purchased Eurofins (Celle Lévescault)
Summary of the method: as §1

[8] = molecular target: T8, 380 human recombinant protein kinases (Homo sapiens, UniProt Q04912); details: Ron(h), read-out: Inhibition rate
T8 construct: purchased Eurofins (Celle Lévescault)
Summary of the method: as §1

[9] = molecular target: T9, 380 human recombinant protein kinases (Homo sapiens, UniProt P42336, E545K); details: PI3 Kinase (p110α(E545K)/p85α)(h), read-out: Inhibition rate (%)
T9 construct: purchased Eurofins (Celle Lévescault)
Summary of the method: as §1

T5 sequence (Q02779 whole entry): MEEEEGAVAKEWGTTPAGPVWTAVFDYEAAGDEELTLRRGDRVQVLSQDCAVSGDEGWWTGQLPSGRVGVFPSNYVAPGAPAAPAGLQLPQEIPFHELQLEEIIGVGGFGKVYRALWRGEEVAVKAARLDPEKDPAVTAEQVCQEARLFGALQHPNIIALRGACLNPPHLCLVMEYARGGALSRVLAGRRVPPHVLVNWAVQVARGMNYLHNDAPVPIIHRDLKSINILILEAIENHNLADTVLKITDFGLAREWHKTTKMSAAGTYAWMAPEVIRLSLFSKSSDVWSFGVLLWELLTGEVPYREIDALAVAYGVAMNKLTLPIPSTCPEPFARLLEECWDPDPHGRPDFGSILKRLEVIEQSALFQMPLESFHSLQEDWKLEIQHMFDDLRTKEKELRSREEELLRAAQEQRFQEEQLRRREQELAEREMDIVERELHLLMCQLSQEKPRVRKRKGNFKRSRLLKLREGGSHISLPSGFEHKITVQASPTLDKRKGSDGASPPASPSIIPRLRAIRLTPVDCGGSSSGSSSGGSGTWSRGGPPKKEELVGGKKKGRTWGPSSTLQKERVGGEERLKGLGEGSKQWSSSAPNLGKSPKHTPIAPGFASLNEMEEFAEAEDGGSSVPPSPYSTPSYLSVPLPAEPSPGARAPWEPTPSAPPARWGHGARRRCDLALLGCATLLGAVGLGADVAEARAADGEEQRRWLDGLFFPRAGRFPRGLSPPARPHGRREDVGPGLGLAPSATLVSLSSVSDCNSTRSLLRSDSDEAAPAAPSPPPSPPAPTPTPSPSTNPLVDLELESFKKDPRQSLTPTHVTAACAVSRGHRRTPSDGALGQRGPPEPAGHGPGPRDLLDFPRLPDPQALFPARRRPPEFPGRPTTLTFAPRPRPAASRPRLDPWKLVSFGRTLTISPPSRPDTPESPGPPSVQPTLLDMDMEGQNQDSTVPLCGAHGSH
T6 sequence (P68400 whole entry): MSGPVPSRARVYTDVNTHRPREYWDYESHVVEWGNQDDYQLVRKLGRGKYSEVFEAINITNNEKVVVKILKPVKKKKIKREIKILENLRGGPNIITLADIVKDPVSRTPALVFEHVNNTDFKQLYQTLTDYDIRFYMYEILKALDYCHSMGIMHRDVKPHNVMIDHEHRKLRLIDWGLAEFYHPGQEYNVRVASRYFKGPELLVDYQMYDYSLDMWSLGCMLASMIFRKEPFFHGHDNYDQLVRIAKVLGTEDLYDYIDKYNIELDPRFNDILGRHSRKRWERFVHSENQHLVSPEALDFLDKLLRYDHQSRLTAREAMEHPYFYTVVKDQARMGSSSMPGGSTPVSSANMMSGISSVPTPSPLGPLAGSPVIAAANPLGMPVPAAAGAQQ
T3 sequence (Q16512 whole entry): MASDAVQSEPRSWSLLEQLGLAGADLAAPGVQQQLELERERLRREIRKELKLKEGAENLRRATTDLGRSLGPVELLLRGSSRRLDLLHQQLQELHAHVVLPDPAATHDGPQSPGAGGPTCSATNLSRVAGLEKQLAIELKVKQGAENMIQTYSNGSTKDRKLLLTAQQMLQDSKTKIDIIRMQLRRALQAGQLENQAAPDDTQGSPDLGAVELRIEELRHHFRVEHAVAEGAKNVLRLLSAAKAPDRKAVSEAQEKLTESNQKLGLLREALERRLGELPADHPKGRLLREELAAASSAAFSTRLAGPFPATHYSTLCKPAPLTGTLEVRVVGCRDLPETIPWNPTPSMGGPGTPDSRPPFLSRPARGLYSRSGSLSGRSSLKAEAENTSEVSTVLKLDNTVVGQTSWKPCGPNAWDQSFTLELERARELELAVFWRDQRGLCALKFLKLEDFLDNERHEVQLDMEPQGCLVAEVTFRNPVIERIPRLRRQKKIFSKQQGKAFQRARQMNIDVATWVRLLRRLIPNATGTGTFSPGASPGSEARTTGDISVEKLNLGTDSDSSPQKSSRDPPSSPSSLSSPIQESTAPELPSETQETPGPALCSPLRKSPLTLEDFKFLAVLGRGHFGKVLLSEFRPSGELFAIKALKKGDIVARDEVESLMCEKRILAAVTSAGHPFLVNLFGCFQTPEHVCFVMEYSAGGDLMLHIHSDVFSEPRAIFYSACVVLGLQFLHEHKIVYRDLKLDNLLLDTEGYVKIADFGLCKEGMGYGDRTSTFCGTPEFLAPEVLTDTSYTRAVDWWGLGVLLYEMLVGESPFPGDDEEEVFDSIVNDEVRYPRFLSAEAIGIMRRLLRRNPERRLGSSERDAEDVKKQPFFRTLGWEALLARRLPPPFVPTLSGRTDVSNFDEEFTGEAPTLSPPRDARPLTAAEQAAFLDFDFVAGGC
T8 sequence (Q04912 25-1400): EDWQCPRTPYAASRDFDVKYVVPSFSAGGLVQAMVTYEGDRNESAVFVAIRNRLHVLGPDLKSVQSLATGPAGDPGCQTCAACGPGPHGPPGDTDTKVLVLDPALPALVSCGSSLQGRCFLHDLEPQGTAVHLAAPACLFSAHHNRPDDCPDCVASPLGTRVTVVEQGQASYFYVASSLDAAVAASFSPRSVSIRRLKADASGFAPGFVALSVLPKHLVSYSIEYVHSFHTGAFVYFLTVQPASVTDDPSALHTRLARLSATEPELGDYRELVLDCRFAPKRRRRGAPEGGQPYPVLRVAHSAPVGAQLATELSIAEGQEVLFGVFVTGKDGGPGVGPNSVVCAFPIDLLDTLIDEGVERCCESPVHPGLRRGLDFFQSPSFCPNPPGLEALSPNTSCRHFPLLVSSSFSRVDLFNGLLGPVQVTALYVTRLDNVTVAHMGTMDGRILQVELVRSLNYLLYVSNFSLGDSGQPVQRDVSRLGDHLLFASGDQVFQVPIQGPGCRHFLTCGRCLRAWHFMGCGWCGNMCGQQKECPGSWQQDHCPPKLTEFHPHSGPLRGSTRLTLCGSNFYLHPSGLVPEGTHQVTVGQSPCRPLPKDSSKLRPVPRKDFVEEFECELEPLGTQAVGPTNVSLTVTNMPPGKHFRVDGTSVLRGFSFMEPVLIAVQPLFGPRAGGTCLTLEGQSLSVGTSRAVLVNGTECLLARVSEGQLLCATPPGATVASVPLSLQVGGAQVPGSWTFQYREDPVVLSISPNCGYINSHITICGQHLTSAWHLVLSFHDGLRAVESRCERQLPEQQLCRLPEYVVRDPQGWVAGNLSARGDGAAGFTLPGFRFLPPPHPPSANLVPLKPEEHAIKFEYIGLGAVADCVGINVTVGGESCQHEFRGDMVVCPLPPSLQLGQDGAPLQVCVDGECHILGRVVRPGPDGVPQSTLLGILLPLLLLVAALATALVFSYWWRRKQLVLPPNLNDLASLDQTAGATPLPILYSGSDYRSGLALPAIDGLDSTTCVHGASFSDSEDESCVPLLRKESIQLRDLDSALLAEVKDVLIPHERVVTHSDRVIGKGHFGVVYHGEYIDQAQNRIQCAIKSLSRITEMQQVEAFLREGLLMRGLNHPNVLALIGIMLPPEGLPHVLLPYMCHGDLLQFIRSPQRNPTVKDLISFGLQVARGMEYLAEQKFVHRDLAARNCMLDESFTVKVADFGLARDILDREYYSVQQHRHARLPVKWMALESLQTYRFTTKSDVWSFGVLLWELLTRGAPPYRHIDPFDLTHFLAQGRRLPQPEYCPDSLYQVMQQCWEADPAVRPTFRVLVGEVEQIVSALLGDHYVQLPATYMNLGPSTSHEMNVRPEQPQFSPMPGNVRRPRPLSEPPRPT
T2 sequence (Q02763 23-1124): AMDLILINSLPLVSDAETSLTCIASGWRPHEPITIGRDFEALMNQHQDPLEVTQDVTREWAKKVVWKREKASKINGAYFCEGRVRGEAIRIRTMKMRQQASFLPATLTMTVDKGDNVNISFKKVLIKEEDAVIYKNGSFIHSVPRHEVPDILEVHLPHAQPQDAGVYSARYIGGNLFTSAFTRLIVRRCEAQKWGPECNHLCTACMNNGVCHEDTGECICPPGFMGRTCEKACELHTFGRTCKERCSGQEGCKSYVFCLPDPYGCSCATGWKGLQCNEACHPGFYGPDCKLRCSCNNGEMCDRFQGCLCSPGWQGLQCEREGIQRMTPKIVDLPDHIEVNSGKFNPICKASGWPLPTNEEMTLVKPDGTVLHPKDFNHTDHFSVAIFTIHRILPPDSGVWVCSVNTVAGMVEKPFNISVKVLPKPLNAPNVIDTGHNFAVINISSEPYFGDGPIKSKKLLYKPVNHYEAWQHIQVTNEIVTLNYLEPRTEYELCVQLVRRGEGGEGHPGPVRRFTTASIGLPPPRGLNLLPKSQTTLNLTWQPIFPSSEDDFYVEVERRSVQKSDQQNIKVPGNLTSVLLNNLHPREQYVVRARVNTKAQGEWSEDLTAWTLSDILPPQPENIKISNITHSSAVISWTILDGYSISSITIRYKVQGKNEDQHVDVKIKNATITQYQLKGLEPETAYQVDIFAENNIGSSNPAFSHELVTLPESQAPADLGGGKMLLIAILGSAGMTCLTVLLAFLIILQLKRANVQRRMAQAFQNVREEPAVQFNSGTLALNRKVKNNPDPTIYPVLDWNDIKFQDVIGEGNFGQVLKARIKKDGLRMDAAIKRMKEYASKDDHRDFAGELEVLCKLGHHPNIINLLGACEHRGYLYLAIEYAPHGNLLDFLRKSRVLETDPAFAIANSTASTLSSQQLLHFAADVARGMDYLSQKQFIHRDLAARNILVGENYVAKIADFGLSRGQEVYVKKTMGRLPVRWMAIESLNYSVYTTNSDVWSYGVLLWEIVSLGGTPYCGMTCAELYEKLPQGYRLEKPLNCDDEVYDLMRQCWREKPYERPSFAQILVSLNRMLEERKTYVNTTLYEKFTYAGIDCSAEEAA

For `C=CC(=O)Nc1cc(-c2cc(-c3cc4c([nH]3)CCNC4=O)ccn2)ccc1OC(F)(F)F` [compound 11], which inhibition at 0.01 µM ([1]; 10 nM) is on record?
The inhibition at 0.01 µM was 3%.

And the inhibition at 0.1 µM ([1]; 100 nM)?
The inhibition at 0.1 µM was 6%.

And the inhibition at 1 µM ([1]; 1000 nM)?
The inhibition at 1 µM was 11%.

What about the inhibition at 0.01 µM ([2]; 10 nM) of the same molecule?
Its inhibition at 0.01 µM is 0%.

And the inhibition at 0.1 µM ([2]; 100 nM)?
Its inhibition at 0.1 µM is 10%.

And the inhibition at 1 µM ([2]; 1000 nM)?
Its inhibition at 1 µM is 24%.

And the inhibition at 0.01 µM ([3]; 10 nM)?
Its inhibition at 0.01 µM is -3%.

And the inhibition at 0.1 µM ([3]; 100 nM)?
Its inhibition at 0.1 µM is 6%.

What about the inhibition at 1 µM ([3]; 1000 nM) of the same molecule?
Its inhibition at 1 µM is 4%.

What about the inhibition at 0.01 µM ([4]; 10 nM) of the same molecule?
Its inhibition at 0.01 µM is -2%.

And the inhibition at 0.1 µM ([4]; 100 nM)?
Its inhibition at 0.1 µM is 14%.

What about the inhibition at 1 µM ([4]; 1000 nM) of the same molecule?
The inhibition at 1 µM was 28%.

And the inhibition at 0.01 µM ([5]; 10 nM)?
The inhibition at 0.01 µM was -5%.

What about the inhibition at 0.1 µM ([5]; 100 nM) of the same molecule?
The inhibition at 0.1 µM was 2%.

What about the inhibition at 1 µM ([5]; 1000 nM) of the same molecule?
Its inhibition at 1 µM is 10%.

And the inhibition at 0.01 µM ([6]; CK2(h))?
Its inhibition at 0.01 µM is -3%.

And the inhibition at 0.1 µM ([6]; CK2(h))?
Its inhibition at 0.1 µM is -1%.

And the inhibition at 1 µM ([6]; CK2(h))?
Its inhibition at 1 µM is 0%.

And the inhibition at 0.01 µM ([6]; CK2α1(h))?
The inhibition at 0.01 µM was -9%.

And the inhibition at 0.1 µM ([6]; CK2α1(h))?
The inhibition at 0.1 µM was -2%.

What about the inhibition at 1 µM ([6]; CK2α1(h)) of the same molecule?
Its inhibition at 1 µM is 9%.

What about the inhibition at 0.01 µM ([7]; 10 nM) of the same molecule?
Its inhibition at 0.01 µM is -10%.

What about the inhibition at 0.1 µM ([7]; 100 nM) of the same molecule?
The inhibition at 0.1 µM was -7%.

What about the inhibition at 1 µM ([7]; 1000 nM) of the same molecule?
Its inhibition at 1 µM is -5%.

And the inhibition at 0.01 µM ([8]; 10 nM)?
The inhibition at 0.01 µM was -4%.

And the inhibition at 0.1 µM ([8]; 100 nM)?
Its inhibition at 0.1 µM is 26%.

And the inhibition at 1 µM ([8]; 1000 nM)?
The inhibition at 1 µM was 77%.

What about the inhibition at 0.01 µM ([9]; 10 nM) of the same molecule?
The inhibition at 0.01 µM was 2%.

And the inhibition at 0.1 µM ([9]; 100 nM)?
The inhibition at 0.1 µM was 2%.

And the inhibition at 1 µM ([9]; 1000 nM)?
The inhibition at 1 µM was 4%.
